Test results from patent US20190255022A1, “WOUND-HEALING AGENT” (NIPPON CHEMIPHAR CO., LTD., priority 2016, published 2019).

System: rat pressure ulcer model
Experiment: Effect of compound A in rat pressure ulcer model
Assay type: in vivo
Details: for Number of days required for healing: 150 mg once a day until healing; for Number of days required for healing / wound area ratio: mean±standard error; for wound area ratio: 150 mg once a day
Procedure: The compound A was weighed in the required amount, and polyethylene glycol 400 (PEG400) was added to the compound to prepare liquids having final concentrations of the compound of 0.01, 0.1, and 1.0 w/v %. In order to prepare ointments having final concentrations of the compound of 0.005, 0.05, and 0.5 w/w %, PEG4000 melted by warming at 65° C. was added to the liquids, and the liquids were stirred until they solidified at room temperature to prepare ointments having concentrations of the compound of 0.005, 0.05, and 0.5 w/w %.
Pentobarbital sodium was intraperitoneally administered (50 mg/kg) to 8 weeks old Slc:SD rats, of which skins on the right third trochanter had been broadly depilated beforehand using an electric clipper and an electric shaver, 20 mg/kg of allobarbital was further intraperitoneally administered to anesthetize the rats, and the animals were fixed on wooden fixation plates in the prone position. Absorbent cotton was inserted between the femoral region and the fixation plate as a cushion, and a stainless steel bar (diameter 19 mm, length 50 cm) having a weight of 1.02 to 1.03 kg and attached with a rubber stopper (diameter 12 mm) was placed on the skin over the right third trochanter to give a pressure load (902.3 to 911.2 g/cm^2) for 24 hours^5). After 24 hours, the pressure load was eliminated, a 5% glucose solution was orally administered to the rats, and two days after the elimination of the pressure load, the necrotic skin was surgically removed under isoflurane anesthesia to prepare a pressure ulcer model. As for the methods of the experiments, Hidetoshi Hamamoto et al., Clinical Pharmacology and Therapy (Yakuri to Rinsho), 15:255-262, 2005, Effect of MRX-201 on Wound Healing Dermal Burns and Decubitus Ulcer in Rat was referred to.
After the preparation of the pressure ulcer model, the administration was performed once a day at a dose of 150 mg until healing was completed. The wound surface was cleaned with absorbent cotton dipped in physiological saline before the administration, and the ointment was applied to the whole wound surface with a spatula.
Wound area was measured once a day after the start of the administration of the test substance until healing was completed. By using the measured wound area, wound area ratio (%) based on the wound area before the start of the administration was calculated. The number of days of the period from the start of the administration to healing was calculated as number of days required for healing.
Homoscedasticity was examined by the Bartlett's method. When homoscedastic results were obtained, one-way layout analysis of variance was further performed, and when significant results were obtained, mean values were compared by the Tukey's method. When heteroscedastic results were obtained, Kruskal-Wallis H-test was performed, and when significant results were obtained, mean ranks were compared by the Tukey's method. For the Bartlett's method, one-way analysis of variance, and Kruskal-Wallis H-test, the statistical significance level was set at 5%, and for the Tukey's method, the statistical significance level was set at 5% and 1%.

Compound: Cc1cc2c(CCc3sc(-c4ccc(C(F)(F)F)cc4)nc3C(C)C)noc2cc1OCC(=O)O [compound A, [3-[2-[4-isopropyl-2-(4-trifluoromethyl)phenyl-5-thiazolyl]ethyl]-5-methyl-1,2-benzisoxazol-6-yl]oxyacetic acid]
- number of the days required for healing compared with the vehicle-administered group (0.005% and 0.05% compound A-administered groups): significantly decreased
- Number of days required for healing (0.005% compound A ointment, n=10): 20.1 ± 1.4 days
- wound area ratio (0.005% compound A ointment, day 1 of administration, n=10): 100.0 ± 0.0%
- wound area ratio (0.005% compound A ointment, day 2 of administration, n=10): 108.3 ± 3.1%
- wound area ratio (0.005% compound A ointment, day 3 of administration, n=10): 108.9 ± 3.9%
- wound area ratio (0.005% compound A ointment, day 4 of administration, n=10): 99.9 ± 3.5 %
- wound area ratio (0.005% compound A ointment, day 5 of administration, n=10): 92.1 ± 3.7 %
- wound area ratio (0.005% compound A ointment, day 6 of administration, n=10): 76.4 ± 5.5 %
- wound area ratio (0.005% compound A ointment, day 7 of administration, n=10): 66.4 ± 4.7 %
- wound area ratio (0.005% compound A ointment, day 8 of administration, n=10): 55.2 ± 4.8 %
- wound area ratio (0.005% compound A ointment, day 9 of administration, n=10): 45.3 ± 4.3 %
- wound area ratio (0.005% compound A ointment, day 10 of administration, n=10): 39.4 ± 4.1 %
- wound area ratio (0.005% compound A ointment, day 11 of administration, n=10): 31.5 ± 3.3 %
- wound area ratio (0.005% compound A ointment, day 12 of administration, n=10): 23.8 ± 2.4 %
- wound area ratio (0.005% compound A ointment, day 13 of administration, n=10): 19.6 ± 2.3 %
- wound area ratio (0.005% compound A ointment, day 14 of administration, n=10): 14.4 ± 2.5 %
- wound area ratio (0.005% compound A ointment, day 15 of administration, n=10): 10.3 ± 2.1%
- wound area ratio (0.005% compound A ointment, day 16 of administration, n=10): 7.1 ± 1.8 %
- wound area ratio (0.005% compound A ointment, day 17 of administration, rats except for the healed rats): 4.4 ± 1.5 %
- wound area ratio (0.005% compound A ointment, day 18 of administration, rats except for the healed rats): 4.9 ± 1.6^ %
- wound area ratio (0.005% compound A ointment, day 19 of administration, rats except for the healed rats): 3.3 ± 1.5 %
- wound area ratio (0.005% compound A ointment, day 20 of administration, rats except for the healed rats): 2.8 ± 1.5^ %
- wound areas compared with the vehicle-administered group (0.005% compound A-administered group, from the day 4 of the administration): significantly smaller
- wound areas compared with the vehicle-administered group (0.05% and 0.5% compound A-administered groups, from the day 5 of the administration): significantly smaller
- Number of days required for healing (0.05% compound A ointment, n=10): 19.7 ± 1.1 days
- wound area ratio (0.05% compound A ointment, day 1 of administration, n=10): 100.0 ± 0.0%
- wound area ratio (0.05% compound A ointment, day 2 of administration, n=10): 115.0 ± 2.8%
- wound area ratio (0.05% compound A ointment, day 3 of administration, n=10): 113.6 ± 3.5%
- wound area ratio (0.05% compound A ointment, day 4 of administration, n=10): 104.9 ± 3.1%
- wound area ratio (0.05% compound A ointment, day 5 of administration, n=10): 95.1 ± 3.7 %
- wound area ratio (0.05% compound A ointment, day 6 of administration, n=10): 84.4 ± 2.8%
- wound area ratio (0.05% compound A ointment, day 7 of administration, n=10): 73.5 ± 2.7 %
- wound area ratio (0.05% compound A ointment, day 8 of administration, n=10): 63.4 ± 3.1 %
- wound area ratio (0.05% compound A ointment, day 9 of administration, n=10): 49.8 ± 4.2 %
- wound area ratio (0.05% compound A ointment, day 10 of administration, n=10): 41.6 ± 3.9 %
- wound area ratio (0.05% compound A ointment, day 11 of administration, n=10): 31.2 ± 3.1 %
- wound area ratio (0.05% compound A ointment, day 12 of administration, n=10): 22.3 ± 3.6 %
- wound area ratio (0.05% compound A ointment, day 13 of administration, n=10): 16.4 ± 4.0 %
- wound area ratio (0.05% compound A ointment, day 14 of administration, n=10): 12.1 ± 3.7 %
- wound area ratio (0.05% compound A ointment, day 15 of administration, n=10): 8.6 ± 3.2 %
- wound area ratio (0.05% compound A ointment, day 16 of administration, n=10): 7.5 ± 3.3 %
- wound area ratio (0.05% compound A ointment, day 17 of administration, rats except for the healed rats): 6.7 ± 3.2 %
- wound area ratio (0.05% compound A ointment, day 18 of administration, rats except for the healed rats): 7.8 ± 3.8^ %
- wound area ratio (0.05% compound A ointment, day 19 of administration, rats except for the healed rats): 5.4 ± 2.9^ %
- wound area ratio (0.05% compound A ointment, day 20 of administration, rats except for the healed rats): 5.4 ± 3.2^ %
- Number of days required for healing (0.5% compound A ointment, n=10): 21.0 ± 1.2 days
- wound area ratio (0.5% compound A ointment, day 1 of administration, n=10): 100.0 ± 0.0%
- wound area ratio (0.5% compound A ointment, day 2 of administration, n=10): 119.6 ± 5.0%
- wound area ratio (0.5% compound A ointment, day 3 of administration, n=10): 117.5 ± 5.0%
- wound area ratio (0.5% compound A ointment, day 4 of administration, n=10): 109.5 ± 4.6%
- wound area ratio (0.5% compound A ointment, day 5 of administration, n=10): 93.2 ± 4.3 %
- wound area ratio (0.5% compound A ointment, day 6 of administration, n=10): 84.9 ± 4.3%
- wound area ratio (0.5% compound A ointment, day 7 of administration, n=10): 77.0 ± 5.1%
- wound area ratio (0.5% compound A ointment, day 8 of administration, n=10): 65.3 ± 4.4%
- wound area ratio (0.5% compound A ointment, day 9 of administration, n=10): 56.0 ± 4.0%
- wound area ratio (0.5% compound A ointment, day 10 of administration, n=10): 49.2 ± 3.9%
- wound area ratio (0.5% compound A ointment, day 11 of administration, n=10): 39.7 ± 4.6%
- wound area ratio (0.5% compound A ointment, day 12 of administration, n=10): 28.3 ± 3.4%
- wound area ratio (0.5% compound A ointment, day 13 of administration, n=10): 19.6 ± 2.2 %
- wound area ratio (0.5% compound A ointment, day 14 of administration, n=10): 15.5 ± 1.6 %
- wound area ratio (0.5% compound A ointment, day 15 of administration, n=10): 8.0 ± 0.9 %
- wound area ratio (0.5% compound A ointment, day 16 of administration, n=10): 5.6 ± 0.7 %
- wound area ratio (0.5% compound A ointment, day 17 of administration, rats except for the healed rats): 3.7 ± 0.5 %
- wound area ratio (0.5% compound A ointment, day 18 of administration, rats except for the healed rats): 2.2 ± 0.6 %
- wound area ratio (0.5% compound A ointment, day 19 of administration, rats except for the healed rats): 2.2 ± 0.6 %
- wound area ratio (0.5% compound A ointment, day 20 of administration, rats except for the healed rats): 1.6 ± 0.4 %
- exacerbation of wounds (from the day 1 to day 3 of the administration, a tendency): suppressed
